Laboratory results from patent US20040121316A1 (priority 2002, published 2004).
Read-outs that look alike come from different tables or passages of the source.

Legend:
[1] = system: wild-type HIV-1 strain IIIB; assay: microbe, parasite or virus in culture; format: cell-based; parameters: scale not given here
mutant HIV-1 I84V/L90M = assay: Resistance Evaluation, I84V/L90M fold change; format: cell-based; parameters: scale not given here
[2] = target: T1, recombinant HIV-1 protease (Human immunodeficiency virus type 1 group M subtype B, UniProt P04585); assay: biochemical
T1 construct: Enzyme: recombinant HIV-1 protease expressed in E.Coli; purchased Bachem California, Inc. H-9040; host or cells: E. coli

[3] = Human immunodeficiency virus 1, IIIB
[4] = EC50 of mutant I84V/L90M relative to wild type, class symbols

Row | Compound | EC50 [1, 3] [nM] | I84V/L90M fold change (mutant HIV-1 I84V/L90M; mutant I84V/L90M vs wild type) | further results
1 | COc1ccc(S(=O)(=O)N(CC(C)C)CC(O)C(CNc2ccc(CP(=O)(O)O)cc2)NC(=O)OC2COC3OCCC23)cc1 (stereo not shown) | 500 to 5000 |  | I84V/L90M fold change (mutant HIV-1 I84V/L90M; [4]): + (>3 to ≦10)
2 | CCOP(=O)(CCN1CCN(CC(NC(=O)OC2COC3OCCC23)C(O)CN(CC(C)C)S(=O)(=O)c2ccc(OC)cc2)CC1)OCC (stereo not shown) |  |  | Ki [2]: + +
3 | CCOC(=O)C(C)OP(=O)(CN1CC=C(CC(NC(=O)OC2COC3OCCC23)C(O)CN(CC(C)C)S(=O)(=O)c2ccc(OC)cc2)CC1)Oc1ccccc1 (stereo not shown) |  | − (≦3) | EC50 (nM) [1]: + + +
4 | COc1ccc(S(=O)(=O)N(CCN2CCOCC2)CC(O)C(Cc2ccc(OCP(=O)(O)O)cc2)NC(=O)OC2COC3OCCC23)cc1 (stereo not shown) | > 5000 | + (>3 to ≦10) | 
5 | Cc1cccc(C)c1OCC(=O)NC(Cc1ccc(OCP(=O)(O)O)cc1)C(O)CN(CC(C)C)S(=O)(=O)c1ccc(N)cc1 (stereo not shown) | > 5000 | − (≦3) | 
6 | Cc1ccc(C(=O)NC(Cc2ccc(OCP(=O)(O)O)cc2)C(O)CN(CC(C)C)S(=O)(=O)c2ccc(N)cc2)cc1O (stereo not shown) | > 5000 | + (>3 to ≦10) | 
7 | CC(C)CN(CC(O)C(Cc1ccc(OCP(=O)(O)O)cc1)NC(=O)OC1COC2OCCC12)S(=O)(=O)c1ccc(N)cc1 (stereo not shown) | > 5000 | − (≦3) | 
8 | CCOP(=O)(COc1ccc(CC(NC(=O)OC2COC3OCCC23)C(O)CN(CC(C)C)S(=O)(=O)c2ccc(N)cc2)cc1)OCC (stereo not shown) |  | − (≦3) | 
9 | CC(C)CN(CC(O)C(Cc1ccc(OCP(=O)(O)O)cc1)NC(=O)OC1COC2OCCC12)S(=O)(=O)c1cccc(N)c1 (stereo not shown) | 500 to 5000 | − (≦3) | 
10 | CC(C)CN(CC(O)C(Cc1ccc(OCP(=O)(OCc2ccccc2)OCc2ccccc2)cc1)NC(=O)OC1COC2OCCC12)S(=O)(=O)c1ccccc1 (stereo not shown) |  | + (>3 to ≦10) | 
11 | CC(C)CN(CC(O)C(Cc1ccc(OCP(=O)(OCc2ccccc2)OCc2ccccc2)cc1)NC(=O)OC1COC2OCCC12)S(=O)(=O)c1ccc(F)cc1 (stereo not shown) |  | + (>3 to ≦10) | 
12 | CC(C)CN(CC(O)C(Cc1ccc(OCP(=O)(OCc2ccccc2)OCc2ccccc2)cc1)NC(=O)OC1COC2OCCC12)S(=O)(=O)c1ccc(C(F)(F)F)cc1 (stereo not shown) |  | − (≦3) | 
13 | CC(C)CN(CC(O)C(Cc1ccc(OCP(=O)(OCc2ccccc2)OCc2ccccc2)cc1)NC(=O)OC1COC2OCCC12)S(=O)(=O)c1ccc(C#N)cc1 (stereo not shown) |  | − (≦3) | 
14 | Cc1ccc(C(=O)N[C@@H](Cc2ccc(OCP(=O)(OCc3ccccc3)OCc3ccccc3)cc2)[C@H](O)CN(CC(C)C)S(=O)(=O)c2ccc(N)cc2)cc1O |  |  | Ki (pM) [2]: + +
15 | CCCCOC(=O)C(C)OP(=O)(COc1ccc(C[C@H](NC(=O)O[C@H]2CO[C@H]3OCC[C@H]32)[C@H](O)CN(CC(C)C)S(=O)(=O)c2cccc(N)c2)cc1)Oc1ccccc1 (stereo partly shown) |  | − (≦3) | EC50 (nM) [1]: + +
16 | CC(C)CN(CC(O)C(Cc1ccccc1)NC(=O)OC1COC2OCCC12)S(=O)(=O)c1ccc(O)cc1 (stereo not shown) |  | − (≦3) | 
17 | CC(C)CN(CC(O)C(Cc1ccccc1)NC(=O)OC1COC2OCCC12)S(=O)(=O)c1ccc(OCP(=O)(O)O)cc1 (stereo not shown) | 500 to 5000 | − (≦3) | 
18 | CC(C)CN(CC(O)C(Cc1ccccc1)NC(=O)OC1COC2OCCC12)S(=O)(=O)c1ccc(OCP(=O)(O)Oc2ccccc2)cc1 (stereo not shown) | > 5000 |  | Ki (pM) [2]: + +
19 | CC(C)CN(CC(O)C(Cc1ccccc1)NC(=O)OC1COC2OCCC12)S(=O)(=O)c1cccc(O)c1 (stereo not shown) |  | + (>3 to ≦10) | 
20 | CC(C)CN(CC(O)C(Cc1ccccc1)NC(=O)OC1COC2OCCC12)S(=O)(=O)c1cccc(OCP(=O)(O)O)c1 (stereo not shown) |  | + (>3 to ≦10) | 
21 | COc1ccc(S(=O)(=O)N(CC(C)C)CC(O)C(Cc2ccccc2)NC(=O)OC2COC3OCCC23)cc1O (stereo not shown) |  | − (≦3) | 
22 | COc1ccc(S(=O)(=O)N(CC(C)C)CC(O)C(Cc2ccccc2)NC(=O)OC2COC3OCCC23)cc1OCP(=O)(O)O (stereo not shown) |  | − (≦3) | 
23 | CCOP(=O)(COc1cc(S(=O)(=O)N(CC(C)C)CC(O)C(Cc2ccccc2)NC(=O)OC2COC3OCCC23)ccc1OC)OCC (stereo not shown) |  | + (>3 to ≦10) | 
24 | CCOP(=O)(COc1cc(S(=O)(=O)N(CC(C)C)CC(O)C(Cc2ccccc2)NC(=O)OC2COC3OCCC23)ccc1O)OCC (stereo not shown) |  | − (≦3) | 

Row | Compound | EC50 [1, 3] [nM] | I84V/L90M fold change (mutant HIV-1 I84V/L90M; mutant I84V/L90M vs wild type) | further results
25 | CCOC(=O)C(C)NP(=O)(COc1ccc(CC(NC(=O)OC2COC3OCCC23)C(O)CN(CC(C)C)S(=O)(=O)c2ccc(OC)cc2)cc1)Oc1ccccc1 (stereo not shown) [Example 30b] | < 50 |  | Ki ([2]; Ki, class symbols, Table 10): < 0.01 nM
26 | CCOC(=O)C(C)NP(=O)(COc1ccc(CC(NC(=O)OC2COC3OCCC23)C(O)CN(CC(C)C)S(=O)(=O)c2ccc(OC)cc2)cc1)OCc1ccccc1 (stereo not shown) [Example 30e] | < 50 |  | I84V/L90M fold change (mutant HIV-1 I84V/L90M; [4]): − (≦3)
27 | CCOC(=O)C(C)OP(=O)(COc1ccc(CC(NC(=O)OC2COC3OCCC23)C(O)CN(CC(C)C)S(=O)(=O)c2ccc(OC)cc2)cc1)Oc1ccccc1 (stereo not shown) [Example 31e] | < 50 |  | Ki ([2]; Ki, class symbols, Table 10): < 0.01 nM
28 | CCOP(=O)(COc1ccc(S(=O)(=O)N(CC(C)C)CC(O)C(Cc2ccc(N)cc2)NC(=O)OC2COC3OCCC23)cc1)OCC (stereo not shown) [NH2, OEt] |  | ++ (>10 to ≦30) | EC50 ([1]; read-out: EC50): 50 to 500 nM
29 | CCOP(=O)(COc1ccc(S(=O)(=O)N(CC(C)C)CC(O)C(Cc2ccc(N(C)C)cc2)NC(=O)OC2COC3OCCC23)cc1)OCC (stereo not shown) [NMe2, OEt] |  | ++ (>10 to ≦30) | EC50 ([1]; read-out: EC50): < 50 nM
30 | CC(C)CN(CC(O)C(Cc1ccc(O)cc1)NC(=O)OC1COC2OCCC12)S(=O)(=O)c1cccc(N)c1 (stereo not shown) [OH, m-NH2] |  | − (≦3) | EC50 (nM) [1]: + +
31 | CC(C)CN(CC(O)C(Cc1ccc(O)cc1)NC(=O)OC1COC2OCCC12)S(=O)(=O)c1ccc(N)cc1 (stereo not shown) [OH, p-NH2] |  | − (≦3) | EC50 (nM) [1]: + +
32 | COc1ccc(S(=O)(=O)N(CC(C)C)C[C@@H](O)[C@H](Cc2ccc(OCP(=O)(OCc3ccccc3)OCc3ccccc3)cc2)NC(=O)OC2CCOC2)cc1 (stereo partly shown) [OMe, OBn] |  | + + | EC50 (nM) [1]: + + +
33 | COc1ccc(S(=O)(=O)N(CC(C)C)C[C@@H](O)[C@H](Cc2ccc(OCP(=O)(O)O)cc2)NC(=O)OC2CCOC2)cc1 (stereo partly shown) [OMe, OH] |  | + + + | EC50 ([1]; read-out: EC50): > 5000 nM
34 | CC(C)CN(C[C@@H](O)[C@H](Cc1ccccc1)NC(=O)O[C@H]1CO[C@H]2OCC[C@H]21)S(=O)(=O)c1ccc(OCP(=O)(Oc2ccccc2)O[C@@H](C)C(=O)OC(C)C)cc1 (stereo partly shown) [OPh, Lac-iPr] |  |  | Ki ([2]; read-out: Ki): 0.1 to 1 nM; EC50 ([1]; read-out: EC50): 500 to 5000 nM
35 | CCCCOC(=O)C(CC)NP(=O)(COc1ccc(CC(NC(=O)OC2COC3OCCC23)C(O)CN(CC(C)C)S(=O)(=O)c2ccc(OC)cc2)cc1)NC(CC)C(=O)OCCCC (stereo not shown) [drawing 612 R1=Aba-Bu R2=Aba-Bu] | < 50 |  | I84V/L90M fold change (mutant HIV-1 I84V/L90M; [4]): + (>3 to ≦10)
36 | CCCCOC(=O)C(CC(C)C)NP(=O)(COc1ccc(CC(NC(=O)OC2COC3OCCC23)C(O)CN(CC(C)C)S(=O)(=O)c2ccc(OC)cc2)cc1)NC(CC(C)C)C(=O)OCCCC (stereo not shown) [drawing 612 R1=Leu-Bu R2=Leu-Bu] | 50 to 500 |  | I84V/L90M fold change (mutant HIV-1 I84V/L90M; [4]): + (>3 to ≦10)
37 | CCNP(=O)(COc1ccc(CC(NC(=O)OC2COC3OCCC23)C(O)CN(CC(C)C)S(=O)(=O)c2ccc(OC)cc2)cc1)NCC (stereo not shown) [drawing 612 R1=NHEt R2=NHEt] | 50 to 500 |  | I84V/L90M fold change (mutant HIV-1 I84V/L90M; [4]): − (≦3)
38 | CCOC(=O)C(NP(=O)(COc1ccc(CC(NC(=O)OC2COC3OCCC23)C(O)CN(CC(C)C)S(=O)(=O)c2ccc(OC)cc2)cc1)NC(C(=O)OCC)C(C)C)C(C)C (stereo not shown) [drawing 612 R1=Val-Et R2=Val-Et] | < 50 |  | I84V/L90M fold change (mutant HIV-1 I84V/L90M; [4]): − (≦3)
39 | CCOC(=O)C(C)OP(=O)(COc1ccc(CC(NC(=O)OC2COC3OCCC23)C(O)CN(CC(C)C)S(=O)(=O)c2ccc(OC)cc2)cc1)OC(C)C(=O)OCC (stereo not shown) [drawing 613 R1=Lac-Et R2=Lac-Et] | 50 to 500 |  | I84V/L90M fold change (mutant HIV-1 I84V/L90M; [4]): − (≦3)
40 | COc1ccc(S(=O)(=O)N(CC(C)C)CC(O)C(Cc2ccc(OCP(=O)(OC(C)C(=O)OC(C)C)OC(C)C(=O)OC(C)C)cc2)NC(=O)OC2COC3OCCC23)cc1 (stereo not shown) [drawing 613 R1=Lac-iPr R2=Lac-iPr] | < 50 |  | I84V/L90M fold change (mutant HIV-1 I84V/L90M; [4]): − (≦3)
41 | COc1ccc(S(=O)(=O)N(CC(C)C)CC(O)C(Cc2ccc(OCP(=O)(O)OC(C)C(=O)O)cc2)NC(=O)OC2COC3OCCC23)cc1 [drawing 615 R1=OH R2=(R)Lac-OH] |  |  | I84V/L90M fold change (mutant HIV-1 I84V/L90M; [4]): − (≦3)
42 | COc1ccc(S(=O)(=O)N(CC(C)C)CC(O)C(Cc2ccc(OCP(=O)(O)OC(C)C(=O)O)cc2)NC(=O)OC2COC3OCCC23)cc1 (stereo not shown) [drawing 615 R1=OH R2=Lac-OH] | 500 to 5000 |  | I84V/L90M fold change (mutant HIV-1 I84V/L90M; [4]): − (≦3)
43 | CCOP(=O)(CON=Cc1ccc(CC(NC(=O)OC2COC3OCCC23)C(O)CN(CC(C)C)S(=O)(=O)c2ccc(OC)cc2)cc1)OCC (stereo not shown) [drawing 621 R1=Et R2=Et] |  |  | EC50 [1]: + + +; I84V/L90M fold change (mutant HIV-1 I84V/L90M; [4]): − (≦3)
44 | COc1ccc(S(=O)(=O)N(CC(C)C)CC(O)C(CC2=CCN(CCP(=O)(OCc3ccccc3)OCc3ccccc3)CC2)NC(=O)OC2COC3OCCC23)cc1 (stereo not shown) [drawing 630] |  |  | I84V/L90M fold change (mutant HIV-1 I84V/L90M; [4]): + (>3 to ≦10)
45 | COc1ccc(S(=O)(=O)N(CC(C)C)CC(O)C(Cc2ccc(NCP(=O)(NC(C)C(=O)OC(C)C)Oc3ccccc3)cc2)NC(=O)OC2COC3OCCC23)cc1 (stereo not shown) [drawing 660] |  |  | Ki ([2]; class symbols, Table 10): + +
46 | COc1ccc(S(=O)(=O)N(CC(C)C)CC(O)C(Cc2ccc(NCP(=O)(NC(C)C(=O)OC(C)C)Oc3ccccc3)cc2)NC(=O)OC2COC3OCCC23)cc1 (stereo not shown) [drawing 661] |  |  | Ki ([2]; class symbols, Table 10): + +
47 | COc1ccc(S(=O)(=O)N(CC(C)C)CC(O)C(Cc2ccc(NCP(=O)(NC(C)C(=O)OC(C)C)Oc3ccccc3)cc2)NC(=O)OC2COC3OCCC23)cc1 (stereo not shown) [drawing 662] |  |  | Ki ([2]; class symbols, Table 10): + + +
48 | CCCCOC(=O)C(C)OP(=O)(COc1ccc(CC(NC(=O)OC2COC3OCCC23)C(O)CN(CC(C)C)S(=O)(=O)c2cccc(N)c2)cc1)Oc1ccccc1 (stereo not shown) [drawing 720] |  |  | Ki (pM) [2]: + +
